The results in this text go back to patent publication US20090304763A1, “Insect Attractant Composition” (priority 2006, published 2009).

The test system of data set [1] is mosquitoes. Put plainly: test comparing acetone alone versus composition: share of available mosquitoes lured. The data set is classed as in vivo. The following applies: one test; acetone alone versus composition containing acetone, lactic acid and the fatty acid.
A short description of data set [2]: surface energy of water with added acetone. The data set is classed as physicochemical. To be noted: 5% addition of acetone to water; water alone 73 dynes/cm. An excerpt: While the C3-C12 ketones used in the composition are insufficient by themselves to act as an insect attractant; they provide other valuable properties to the composition. In particular, small-chain ketones have the ability to act as surface-active agents and thus provide the composition with a more consistent droplet diameter and a lower surface energy when the liquid composition is released. For instance, a 5% addition of acetone to water can reduce water surface energy from 73 dynes/cm to 56 dynes/cm. While not wishing to be bound by this theory, it is believed that producing a composition with a consistent and smaller diameter size provides a better presentation to the antennae of the flying insects.

Take `CC(C)=O` [acetone alone, acetone]: the “average of all available mosquitoes lured” value in data set [1] was found to be 6.7%. In addition, the water surface energy in data set [2] stood at 56 dynes/cm.
